{"source": "patent US9326506B2", "about": "“Preparation method, agricultural composition and applications of natural brassinolide analogs” (CHENGDU NEWSUN CROPSCIENCE CO., LTD, priority 2012, dated 2016)", "tested_on": "rice", "assay": "Low temperature assay on rice seedlings", "type": "in vivo", "method": "According to a low temperature assay, we measured parameters including plant height, number of leaf, area of leaf, number of tiller, weight of root at low temperature to completely determine effects of the natural brassinolide analogues on the resistance to low temperature of a plant.\nThe natural brassinolide analogues, BR1, BR2, BR3, BR4, BR5 and BR6, used herein, were those prepared by the method of Example 1. Respectively the analogues were dissolved into 95% (V/V) ethanol solution, and then diluted with pure water to 1 mg/L, 0.1 mg/L, 0.01 mg/L, 0.001 mg/L and 0.0001 mg/L. In addition, pure water was used as a control.\nAfter rice seeds were disinfected by using 5% sodium hypochlorite solution treatment, they were rinsed with distilled water until their pH>7, placed into a petri dish in a dark incubator, and cultured by using water at 30° C.±2° C. for 9 days. Then respectively the nine-day-old etiolated seedlings of rice were immersed in the above solutions containing different concentrations of the natural brassinolide analogues or pure water, and cultured at the temperature of 1° C., 2° C., 3° C., 4° C. and 5° C. for 24 hr. The parameters including plant height, area of leaf and weight of root after 3, 6, 9 and 12 days and number of leaf and number of tiller after 12 days were measured."}
{"smiles": "CC(C)C[C@@H](O)[C@H](O)[C@@H](C)[C@H]1CCC2C3CC(=O)C4C[C@H](O)[C@H](O)C[C@]4(C)C3CC[C@@]21C", "note": "(stereo partly shown) [BR5]", "values": [{"measurement": "Area of leaf", "setting": "0.001 mg/l, 2 °C, 6 days", "value": 11.6, "unit": "cm^2"}, {"measurement": "Height", "setting": "0.001 mg/l, 2 °C, 6 days", "value": 7.1, "unit": "cm"}, {"measurement": "Weight of root", "setting": "0.001 mg/l, 2 °C, 6 days", "value": 3.0, "unit": "g"}, {"measurement": "Area of leaf", "setting": "0.001 mg/l, 2 °C, 9 days", "value": 12.2, "unit": "cm^2"}, {"measurement": "Height", "setting": "0.001 mg/l, 2 °C, 9 days", "value": 7.3, "unit": "cm"}, {"measurement": "Weight of root", "setting": "0.001 mg/l, 2 °C, 9 days", "value": 3.2, "unit": "g"}, {"measurement": "Area of leaf", "setting": "0.001 mg/l, 2 °C, 12 days", "value": 13.1, "unit": "cm^2"}, {"measurement": "Height", "setting": "0.001 mg/l, 2 °C, 12 days", "value": 7.3, "unit": "cm"}, {"measurement": "Number of leaf", "setting": "0.001 mg/l, 2 °C, 12 days", "value": 3}, {"measurement": "Number of tiller", "setting": "0.001 mg/l, 2 °C, 12 days", "value": 3}, {"measurement": "Weight of root", "setting": "0.001 mg/l, 2 °C, 12 days", "value": 3.9, "unit": "g"}, {"measurement": "Area of leaf", "setting": "0.001 mg/l, 3 °C, 3 days", "value": 10, "unit": "cm^2"}, {"measurement": "Height", "setting": "0.001 mg/l, 3 °C, 3 days", "value": 7, "unit": "cm"}, {"measurement": "Weight of root", "setting": "0.001 mg/l, 3 °C, 3 days", "value": 2.5, "unit": "g"}, {"measurement": "Area of leaf", "setting": "0.001 mg/l, 3 °C, 6 days", "value": 12, "unit": "cm^2"}, {"measurement": "Height", "setting": "0.001 mg/l, 3 °C, 6 days", "value": 7, "unit": "cm"}, {"measurement": "Weight of root", "setting": "0.001 mg/l, 3 °C, 6 days", "value": 2.6, "unit": "g"}, {"measurement": "Area of leaf", "setting": "0.001 mg/l, 3 °C, 9 days", "value": 12.4, "unit": "cm^2"}, {"measurement": "Height", "setting": "0.001 mg/l, 3 °C, 9 days", "value": 7.3, "unit": "cm"}, {"measurement": "Weight of root", "setting": "0.001 mg/l, 3 °C, 9 days", "value": 2.9, "unit": "g"}, {"measurement": "Area of leaf", "setting": "0.001 mg/l, 3 °C, 12 days", "value": 13, "unit": "cm^2"}, {"measurement": "Height", "setting": "0.001 mg/l, 3 °C, 12 days", "value": 7.4, "unit": "cm"}, {"measurement": "Number of leaf", "setting": "0.001 mg/l, 3 °C, 12 days", "value": 3}, {"measurement": "Number of tiller", "setting": "0.001 mg/l, 3 °C, 12 days", "value": 2}, {"measurement": "Weight of root", "setting": "0.001 mg/l, 3 °C, 12 days", "value": 2.9, "unit": "g"}, {"measurement": "Area of leaf", "setting": "0.001 mg/l, 4 °C, 3 days", "value": 10, "unit": "cm^2"}, {"measurement": "Height", "setting": "0.001 mg/l, 4 °C, 3 days", "value": 7.1, "unit": "cm"}, {"measurement": "Weight of root", "setting": "0.001 mg/l, 4 °C, 3 days", "value": 2.5, "unit": "g"}, {"measurement": "Area of leaf", "setting": "0.001 mg/l, 4 °C, 6 days", "value": 12.1, "unit": "cm^2"}, {"measurement": "Height", "setting": "0.001 mg/l, 4 °C, 6 days", "value": 7.3, "unit": "cm"}, {"measurement": "Weight of root", "setting": "0.001 mg/l, 4 °C, 6 days", "value": 2.6, "unit": "g"}, {"measurement": "Area of leaf", "setting": "0.001 mg/l, 4 °C, 9 days", "value": 13, "unit": "cm^2"}, {"measurement": "Height", "setting": "0.001 mg/l, 4 °C, 9 days", "value": 7.5, "unit": "cm"}, {"measurement": "Weight of root", "setting": "0.001 mg/l, 4 °C, 9 days", "value": 2.9, "unit": "g"}, {"measurement": "Area of leaf", "setting": "0.001 mg/l, 4 °C, 12 days", "value": 13.5, "unit": "cm^2"}, {"measurement": "Height", "setting": "0.001 mg/l, 4 °C, 12 days", "value": 7.5, "unit": "cm"}, {"measurement": "Number of leaf", "setting": "0.001 mg/l, 4 °C, 12 days", "value": 3}, {"measurement": "Number of tiller", "setting": "0.001 mg/l, 4 °C, 12 days", "value": 2}, {"measurement": "Weight of root", "setting": "0.001 mg/l, 4 °C, 12 days", "value": 2.9, "unit": "g"}, {"measurement": "Area of leaf", "setting": "0.001 mg/l, 5 °C, 3 days", "value": 10.2, "unit": "cm^2"}, {"measurement": "Height", "setting": "0.001 mg/l, 5 °C, 3 days", "value": 7.2, "unit": "cm"}, {"measurement": "Weight of root", "setting": "0.001 mg/l, 5 °C, 3 days", "value": 2.8, "unit": "g"}, {"measurement": "Area of leaf", "setting": "0.001 mg/l, 5 °C, 6 days", "value": 14, "unit": "cm^2"}, {"measurement": "Height", "setting": "0.001 mg/l, 5 °C, 6 days", "value": 7.5, "unit": "cm"}, {"measurement": "Weight of root", "setting": "0.001 mg/l, 5 °C, 6 days", "value": 2.9, "unit": "g"}, {"measurement": "Area of leaf", "setting": "0.001 mg/l, 5 °C, 9 days", "value": 15.4, "unit": "cm^2"}, {"measurement": "Height", "setting": "0.001 mg/l, 5 °C, 9 days", "value": 7.6, "unit": "cm"}, {"measurement": "Weight of root", "setting": "0.001 mg/l, 5 °C, 9 days", "value": 3.0, "unit": "g"}, {"measurement": "Area of leaf", "setting": "0.001 mg/l, 5 °C, 12 days", "value": 16, "unit": "cm^2"}, {"measurement": "Height", "setting": "0.001 mg/l, 5 °C, 12 days", "value": 8, "unit": "cm"}, {"measurement": "Number of leaf", "setting": "0.001 mg/l, 5 °C, 12 days", "value": 3}, {"measurement": "Number of tiller", "setting": "0.001 mg/l, 5 °C, 12 days", "value": 3}, {"measurement": "Weight of root", "setting": "0.001 mg/l, 5 °C, 12 days", "value": 3.4, "unit": "g"}, {"measurement": "Area of leaf", "setting": "0.01 mg/l, 1 °C, 3 days", "value": 10.1, "unit": "cm^2"}, {"measurement": "Height", "setting": "0.01 mg/l, 1 °C, 3 days", "value": 7.0, "unit": "cm"}, {"measurement": "Weight of root", "setting": "0.01 mg/l, 1 °C, 3 days", "value": 2.8, "unit": "g"}, {"measurement": "Area of leaf", "setting": "0.01 mg/l, 1 °C, 6 days", "value": 11.6, "unit": "cm^2"}, {"measurement": "Height", "setting": "0.01 mg/l, 1 °C, 6 days", "value": 7.2, "unit": "cm"}, {"measurement": "Weight of root", "setting": "0.01 mg/l, 1 °C, 6 days", "value": 3.0, "unit": "g"}, {"measurement": "Area of leaf", "setting": "0.01 mg/l, 1 °C, 9 days", "value": 12, "unit": "cm^2"}, {"measurement": "Height", "setting": "0.01 mg/l, 1 °C, 9 days", "value": 7.3, "unit": "cm"}, {"measurement": "Weight of root", "setting": "0.01 mg/l, 1 °C, 9 days", "value": 3.1, "unit": "g"}, {"measurement": "Area of leaf", "setting": "0.01 mg/l, 1 °C, 12 days", "value": 13.6, "unit": "cm^2"}, {"measurement": "Height", "setting": "0.01 mg/l, 1 °C, 12 days", "value": 7.5, "unit": "cm"}, {"measurement": "Number of leaf", "setting": "0.01 mg/l, 1 °C, 12 days", "value": 3}, {"measurement": "Number of tiller", "setting": "0.01 mg/l, 1 °C, 12 days", "value": 3}, {"measurement": "Weight of root", "setting": "0.01 mg/l, 1 °C, 12 days", "value": 3.9, "unit": "g"}, {"measurement": "Area of leaf", "setting": "0.01 mg/l, 2 °C, 3 days", "value": 10.1, "unit": "cm^2"}, {"measurement": "Height", "setting": "0.01 mg/l, 2 °C, 3 days", "value": 7.1, "unit": "cm"}, {"measurement": "Weight of root", "setting": "0.01 mg/l, 2 °C, 3 days", "value": 2.8, "unit": "g"}, {"measurement": "Area of leaf", "setting": "0.01 mg/l, 2 °C, 6 days", "value": 11.1, "unit": "cm^2"}, {"measurement": "Height", "setting": "0.01 mg/l, 2 °C, 6 days", "value": 7.2, "unit": "cm"}, {"measurement": "Weight of root", "setting": "0.01 mg/l, 2 °C, 6 days", "value": 3, "unit": "g"}, {"measurement": "Area of leaf", "setting": "0.01 mg/l, 2 °C, 9 days", "value": 12.1, "unit": "cm^2"}, {"measurement": "Height", "setting": "0.01 mg/l, 2 °C, 9 days", "value": 7.5, "unit": "cm"}, {"measurement": "Weight of root", "setting": "0.01 mg/l, 2 °C, 9 days", "value": 3, "unit": "g"}, {"measurement": "Area of leaf", "setting": "0.01 mg/l, 2 °C, 12 days", "value": 13.4, "unit": "cm^2"}, {"measurement": "Height", "setting": "0.01 mg/l, 2 °C, 12 days", "value": 7.5, "unit": "cm"}, {"measurement": "Number of leaf", "setting": "0.01 mg/l, 2 °C, 12 days", "value": 3}, {"measurement": "Number of tiller", "setting": "0.01 mg/l, 2 °C, 12 days", "value": 3}, {"measurement": "Weight of root", "setting": "0.01 mg/l, 2 °C, 12 days", "value": 3.2, "unit": "g"}, {"measurement": "Area of leaf", "setting": "0.01 mg/l, 3 °C, 3 days", "value": 10.2, "unit": "cm^2"}, {"measurement": "Height", "setting": "0.01 mg/l, 3 °C, 3 days", "value": 7.1, "unit": "cm"}, {"measurement": "Weight of root", "setting": "0.01 mg/l, 3 °C, 3 days", "value": 2.5, "unit": "g"}, {"measurement": "Area of leaf", "setting": "0.01 mg/l, 3 °C, 6 days", "value": 12, "unit": "cm^2"}, {"measurement": "Height", "setting": "0.01 mg/l, 3 °C, 6 days", "value": 7.2, "unit": "cm"}, {"measurement": "Weight of root", "setting": "0.01 mg/l, 3 °C, 6 days", "value": 2.6, "unit": "g"}, {"measurement": "Area of leaf", "setting": "0.01 mg/l, 3 °C, 9 days", "value": 12.2, "unit": "cm^2"}]}
